In ChEMBL document CHEMBL3507680, “University of Dundee, Gates Library screen for HepG2 cell viability”:

Assay: Human HepG2 cell viability assay in 384 well format
Format: toxicity, cell-based
Set-up: dose 125 nL, time 70.5 hour; concentration not given beside the values
Settings: HepG2 cells, read-out: Inhibition

Row | SMILES | cytotoxicity at 70.5 h
1 | CCC(NC(=O)NCc1cccc(N(C)C)n1)c1cccs1 (centres undefined) | -11.8%
2 | NC(=O)C(NC(=O)c1cc(Br)c[nH]1)c1ccccc1 (centres undefined) | 10.8%
3 | O=C(CCc1ccccc1F)N1CCC(Nc2cccnn2)CC1 | -1.09%
4 | CN(Cc1ccoc1)C(=O)C1CC(=O)N(Cc2ccncc2)C1 (centres undefined) | -8.62%
5 | O=C(NCc1ccccc1CN1CCC(O)CC1)Nc1ccncc1 | 9.61%
6 | CCc1noc(CS(=O)(=O)Cc2ccccc2Cl)n1 | -6.3%
7 | CCOc1cc(C)nc(N2CCN(C(=O)CC)CC2)n1 | -8.45%
8 | COC(=O)NC1(C(=O)Nc2ccc(-c3ncc[nH]3)cc2)CCCC1 | 1.15%
9 | CC(=O)NC1Cc2ccc(S(=O)(=O)NCCNc3ccccn3)cc2C1 (centres undefined) | -4.42%
10 | O=C(CCCOc1ccccc1)N1CCCC(n2cncn2)C1 (centres undefined) | 2.63%
11 | CCN(Cc1cnn(C)c1)C[C@H]1CC[C@@H](Cc2cccc(C#N)c2)O1 | -5.55%
12 | CC(=O)NCCC(=O)N(C/C=C/c1ccccc1)CCO | 24%
13 | O=C(c1cnccn1)N1CCN2C[C@H](OCc3ccccc3)C[C@H]2C1 | -1.37%
14 | CC(C)(C)c1n[nH]c(C2CN(C(=O)CCc3ccco3)CCO2)n1 (centres undefined) | 1.28%
15 | Cc1ccc2c(c1)SCC(=O)N2Cc1noc(C2CCCO2)n1 (centres undefined) | -11.5%
16 | CNC(=O)[C@@H](C1CC1)N1CCC[C@H]1C(=O)NCC(C)C | -7.95%
17 | CCCn1[nH]cc/c1=N\C(=O)CN1CCCC1c1cccn1C (centres undefined) | -2.18%
18 | Cc1ccccc1-c1cncc(C2CCN(Cc3cnn(C)c3)CC2)n1 | -9.46%
19 | Nc1ccnc(N2CCCC(CCc3ccccc3)(C(=O)O)C2)n1 (centres undefined) | -3.28%
20 | O=C(c1ccco1)N1C[C@H]2CCCN(Cc3nccs3)[C@H]2C1 | -11.3%
21 | CCc1ccc2nc(C)cc(C(=O)NC[C@@H]3CCNC[C@H]3O)c2c1 | 14.5%
22 | CC(=O)N1CCCC1c1cc(N2CCN(CC(C)(C)C)CC2)cc(C)n1 (centres undefined) | -7.87%
23 | Cc1noc(CN2CC=C(c3c[nH]c4ncccc34)CC2)n1 | 20.4%

Row | SMILES | cytotoxicity at 70.5 h
24 | Cc1nc(CCNC(=O)NC2CCN(c3ncccn3)CC2)cs1 | -8.38%
25 | Cn1cc(CCNCc2cc(Br)c3c(c2)OCO3)cn1 | 23.7%
26 | CC(C)Cn1ncc2cc(C(=O)N(C)Cc3cccc(O)c3)cnc21 | 11.7%
27 | CCC1c2ccsc2CCN1Cc1cc2c(cc1OC)OCCO2 (centres undefined) | 1.24%
28 | COCC1c2c(cnn2C)CCN1Cc1ccc(C)cc1 (centres undefined) | 42.3%
29 | CCS(=O)(=O)NC[C@]12COC[C@H]1CN(Cc1cccc(OC)c1)C2 | -11.2%
30 | CCc1cc(NCC(O)CN2CCCC2)ncn1 (centres undefined) | 21.2%
31 | Cc1c(CN2CCCC(C(=O)CCc3ccccc3)C2)cc(C#N)n1C (centres undefined) | 12%
32 | CCn1nc(C)cc1C(=O)NCc1cccnc1N(C)C | 2.09%
33 | Cc1csc(C(Cc2ccsc2)NC(=O)CN(C)Cc2ccccn2)n1 (centres undefined) | -5%
34 | CCc1ccc(C2CCCN2C(=O)Cc2ccc(NC(C)=O)cc2)o1 (centres undefined) | 10.6%
35 | COCCN(C)C(C(=O)O)c1cc(Cl)ccc1OC (centres undefined) | 7.55%
36 | CSCCC(NC(N)=O)C(=O)Nc1ccc(-n2cccn2)nc1 (centres undefined) | -7.37%
37 | Cc1cc(C2CCCN2C(=O)NCc2c(C)cc(C)[nH]c2=O)on1 (centres undefined) | -7.29%
38 | CCc1nnc(NC(=O)c2ccc(C3CCCN3CC(C)C)s2)s1 (centres undefined) | -2.96%
39 | Cc1cc(C(=O)N2CCC3(CCN3Cc3ccc(F)cc3)C2)no1 (centres undefined) | -3.92%
40 | Cc1nsc(NC(=O)NC2CCCN(C)C2)n1 (centres undefined) | 29.6%
41 | O=C([C@@H]1COC[C@H]2CN(CC3CC3)C[C@H]21)N1CCC(F)CC1 | 32.5%
42 | Cc1ccc(OCCN(C)Cc2ccc(S(=O)(=O)N(C)C)o2)cc1 | -5.02%
43 | CC(C)(C)c1cnc(CN2CCN(c3ncccn3)CC2)o1 | 6.21%
44 | Cc1cc2nc(CO[C@H]3CN(CC4CC4)C[C@H]3F)[nH]c2cc1C | -2.67%
45 | CC(c1nc(C2CC2)no1)N1CCN(CCn2ccccc2=O)CC1 (centres undefined) | -4.93%
46 | CC(C)n1cnnc1CN(C)C(=O)C1CCCN(CC(N)=O)C1 (centres undefined) | -10.5%

Row | SMILES | cytotoxicity at 70.5 h
47 | O=C(COc1ccccc1)N(Cc1ccncc1)C1CC1 | -8.79%
48 | O=c1ccc(-c2cccs2)nn1CN1CCOC(c2ccccc2)C1 (centres undefined) | -21.3%
49 | Cc1nc(Nc2ncccn2)cc(C2CCN(CC(C)C)C2)n1 (centres undefined) | -15.1%
50 | Cc1nc(C)c2c(n1)CCN(C(=O)CN(C)C)CC2 | 2.27%
51 | CN(C)CCN(C)C[C@@H]1CN(Cc2cccc(O)c2)C[C@@H]1CO | -3.65%
52 | CC(C)(C)CN[C@@H]1CO[C@H](CNC(=O)c2ccncc2)[C@H]1O | 0.614%
53 | Cc1cc(C)c(CNC(=O)NCC2Cc3ccccc32)c(=O)[nH]1 (centres undefined) | -12%
54 | Cn1ncc2c(NC3CCCN(C(=O)C4CC4)C3)nc(C(C)(C)C)nc21 (centres undefined) | 2.96%
55 | c1cnc2c(c1)nc1n2[C@@H](CNC2CCOCC2)COC1 | -4.98%
56 | O=C(NCC1(O)CCC1)c1c(O)cc(F)cc1F | 13.9%
57 | c1cn2c(n1)CO[C@@H](CNCc1ccc3c(c1)OCO3)C2 | -4.1%
58 | CNC(=O)CCS(=O)(=O)Cc1cc(Cl)c2c(c1)OCCCO2 | -3.42%
59 | Cc1ccccc1CN(C)C(=O)CN1CCOC(Cn2cccn2)C1 (centres undefined) | 3.04%
60 | CC(CNCc1ccncc1)Oc1ccccn1 (centres undefined) | -12.5%
61 | NS(=O)(=O)CCNC(=O)c1cc(Br)c2c(c1)OCCO2 | -10.7%
62 | NC(=O)CN1CCCN(C(=O)CCOc2ccccc2Cl)CC1 | -6.92%
63 | CCn1c(CN2CCCC(O)(c3ccc(F)cc3)CC2)cnc1SC (centres undefined) | -5.35%
64 | O=C(Nc1cccs1)N1CC(c2nc(C3CC3)no2)C1 | -5.71%
65 | Cc1ccc(S(=O)(=O)N2CCOc3ccccc32)cc1C(N)=O | 14%
66 | CC(=O)NCCC(=O)NCc1cccnc1-n1cnc2ccccc21 | -8.92%
67 | Cc1cnn(CC2CCCN2Cc2cc(C)no2)c1 (centres undefined) | -14%
68 | CN1CCN(Cc2cscn2)CC(C(=O)N(C)C)C1 (centres undefined) | 15.4%
69 | CC(C)NC(=O)N1CCc2onc(C(=O)NCCN(C)C)c2C1 | -2.85%

Row | SMILES | cytotoxicity at 70.5 h
70 | N#Cc1ccc(SCCC(=O)N(Cc2cccnc2)C2CC2)cc1 | -7.83%
71 | Cc1cnn(Cc2cc(F)ccc2F)c1NC(=O)CNC(=O)C1CC1 | 1.15%
72 | Cc1csc(C(C)(C)NCC(=O)N2CCCC(C(F)(F)F)C2)n1 (centres undefined) | 8.68%
73 | Cc1cc(C(=O)Nc2cnn(CC(F)(F)F)c2)nc(N(C)C)n1 | -1.64%
74 | C=Cn1ncc(CN2C[C@@H]3CCCN3C[C@@H]2CCSC)c1C | -6.32%
75 | Cc1[nH]c2c(C)ccc(C)c2c1CC(=O)NC1CCCNC1=O (centres undefined) | -5.85%
76 | O=C(O)C1(Cc2ccc(Cl)cc2)CCN(c2ncccc2F)CC1 | -4.45%
77 | c1cc(-c2noc(CN3CCc4c(ncn4C4CC4)C3)n2)cs1 | -20.1%
78 | O=C(c1cc(C2CC2)[nH]n1)N1CCCN(c2nccs2)CC1 | -5.32%
79 | O=C(NCCn1nc(-n2cncn2)ccc1=O)c1ccccc1Br | -5.84%
80 | CNC(=O)CNC(=O)Nc1ccc(F)c(Br)c1 | -2.46%
81 | CCn1cnnc1CNC(=O)NC(c1cccs1)C1CCCC1 (centres undefined) | 19.6%
82 | CCCc1ccc(C(=O)N2CCc3c(nc(N(C)C)[nH]c3=O)C2)cc1 | -5.16%
83 | CS(=O)(=O)N1CC2(CCCN2Cc2ccc(Cl)cc2)Cc2ccccc21 (centres undefined) | 7.7%
84 | Cc1nn(C)c(C)c1C1COCCN1C(=O)Cc1cccc(F)c1 (centres undefined) | 12.5%
85 | CCC1CN(C(=O)c2ccccc2N2CCCC2)CCN1C(C)C (centres undefined) | -4.31%
86 | O=C(c1csc(C2CC2)n1)N1CCCCC1Cn1cccn1 (centres undefined) | 21.8%
87 | COc1cc(Cl)ccc1CNC(=O)N(C)C(C)CS(C)(=O)=O (centres undefined) | -7.57%
88 | Cn1c(N2CCOCC2)nc2cc(C(=O)N3CCCOCC3)ccc21 | -12.1%
89 | CCOc1ccnc(N2CCN(C(=O)c3cnc[nH]3)CC2)n1 | -0.507%
90 | Oc1ccccc1-c1n[nH]c(C2CC2)n1 | 11.6%
91 | CCc1nnc(CN2CCN(c3cccc(OC)c3)C(=O)C2)o1 | 12.1%
92 | COC1COC2(CCN(c3ccc(C#N)cc3)CC2)C1 (centres undefined) | -5.93%

Row | SMILES | cytotoxicity at 70.5 h
93 | COCC(=O)N1CC(c2csc(NC(C)=O)n2)C1 | -3.83%
94 | CCn1ccnc1C1CCN(c2ncnc3ccsc23)CC1 | 7.55%
95 | O=C(CN1CCOC(c2ccc(Cl)c(Cl)c2)C1)NCc1ccco1 (centres undefined) | 3.47%
96 | NC(=O)N1CCCC(C(=O)NCCOc2ccc(F)c(F)c2)C1 (centres undefined) | -12.7%
97 | Cc1cnn(CC2CN(Cc3nc4cccnc4[nH]3)CCO2)c1 (centres undefined) | 7.51%
98 | CC(=O)N1CCC(c2nccnc2-c2ccc(F)c(F)c2)CC1 | -0.906%
99 | COc1ccc(C(=O)N2CC[C@H](CO)[C@H](O)C2)c(C)c1 | -4.34%
100 | Cn1ncc2c1CN(Cc1ccc(F)cc1)CC2COCC1CC1 (centres undefined) | 31.5%
101 | COCCC(=O)N(C)CCC1=CCN(C)CC1 | 33%
102 | CC(C)c1cc2c(O)nc(CSCC(=O)NCc3ccncc3)nc2s1 | -12.9%
103 | Cc1cccc(S(=O)(=O)N2CCCC3(CCCN3S(C)(=O)=O)C2)c1 (centres undefined) | 3.22%
104 | COc1ccccc1-n1nc(CC(C)C)nc1Cc1nnc(N)s1 | 5.97%
105 | COc1ccc(C2=C(C)C(N3CCc4ccccc43)=NS2(=O)=O)cc1 | -12.7%
106 | O=C(NC1(c2nccs2)CCCC1)c1[nH]nc(C2CC2)c1Cl | 3%
107 | CCOc1cc([C@@H]2N[C@H](c3nccs3)Cc3ccsc32)ccc1OC | -3%
108 | CC(Nc1cccc(CN2CCOC2=O)c1)C(=O)Nc1cccc(F)c1 (centres undefined) | -0.899%
109 | N#Cc1ccc(OCCN2CCn3c(nnc3C3CC3)C2)cc1 | 6.25%
110 | CCc1nc2ccccc2c(=O)n1CC1(O)CCN(S(C)(=O)=O)CC1 | -20.2%
111 | CCC(CC)N(C)S(=O)(=O)c1ccc(CCNC(C)=O)s1 | 1.4%
112 | Fc1ccc(CN2CCc3ncnc(C4CC4)c3CC2)cc1 | 1.98%
113 | O=C(NCCn1ccc(-c2ccncc2)n1)C1CC1 | -12%
114 | COc1ccnc(N2CCN(C(=O)Cc3ccc(C#N)cc3)CC2)n1 | -0.995%
